Data as given in ChEMBL document CHEMBL5649166, “RIP3 induces apoptosis independent of pronecrotic kinase activity” (Mol Cell, 2014).
Calls of active or inactive are those of the source. No cut-off for these calls is given here.

Columns and labels:
[1] = target: T1, Serine/threonine-protein kinase Sgk1 (Homo sapiens) (UniProt O00141); test: Inhibition of human SGK1 using KGSGSGRPRTSSFAEG as substrate at 1 uM in presence of 32P-ATP by Hotspot assay relative to control; values are per cent of control
T1 sequence (whole entry): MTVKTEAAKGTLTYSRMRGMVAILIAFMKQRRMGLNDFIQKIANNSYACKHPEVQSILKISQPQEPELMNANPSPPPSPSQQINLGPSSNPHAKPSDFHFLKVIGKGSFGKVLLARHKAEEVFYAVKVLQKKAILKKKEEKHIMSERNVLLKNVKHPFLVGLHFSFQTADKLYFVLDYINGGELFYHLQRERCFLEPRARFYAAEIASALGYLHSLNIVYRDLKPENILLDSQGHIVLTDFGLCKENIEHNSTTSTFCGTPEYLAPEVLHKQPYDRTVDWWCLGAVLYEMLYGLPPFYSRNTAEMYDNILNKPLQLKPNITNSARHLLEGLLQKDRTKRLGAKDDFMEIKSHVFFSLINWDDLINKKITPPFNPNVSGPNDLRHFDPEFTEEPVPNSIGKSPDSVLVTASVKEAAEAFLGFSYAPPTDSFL

[2] = system: Neutrophil; test: Inhibition of TNF-alpha induced necroptosis in human neutrophil cells assessed as increase in cell viability incubated for 18 hrs in presence of zVAD and SMAC007 by Cell Titer-Glo luminescent cell viability assay; type: functional, cell-based
[3] = target: T2, Inhibitor of nuclear factor kappa-B kinase subunit beta (Homo sapiens) (UniProt O14920); test: Inhibition of human IKKb/IKBKB using KKKKERLLDDRHDSGLDSMKDEE as substrate at 1 uM in presence of 32P-ATP by Hotspot assay relative to control; values are per cent of control
T2 sequence (whole entry): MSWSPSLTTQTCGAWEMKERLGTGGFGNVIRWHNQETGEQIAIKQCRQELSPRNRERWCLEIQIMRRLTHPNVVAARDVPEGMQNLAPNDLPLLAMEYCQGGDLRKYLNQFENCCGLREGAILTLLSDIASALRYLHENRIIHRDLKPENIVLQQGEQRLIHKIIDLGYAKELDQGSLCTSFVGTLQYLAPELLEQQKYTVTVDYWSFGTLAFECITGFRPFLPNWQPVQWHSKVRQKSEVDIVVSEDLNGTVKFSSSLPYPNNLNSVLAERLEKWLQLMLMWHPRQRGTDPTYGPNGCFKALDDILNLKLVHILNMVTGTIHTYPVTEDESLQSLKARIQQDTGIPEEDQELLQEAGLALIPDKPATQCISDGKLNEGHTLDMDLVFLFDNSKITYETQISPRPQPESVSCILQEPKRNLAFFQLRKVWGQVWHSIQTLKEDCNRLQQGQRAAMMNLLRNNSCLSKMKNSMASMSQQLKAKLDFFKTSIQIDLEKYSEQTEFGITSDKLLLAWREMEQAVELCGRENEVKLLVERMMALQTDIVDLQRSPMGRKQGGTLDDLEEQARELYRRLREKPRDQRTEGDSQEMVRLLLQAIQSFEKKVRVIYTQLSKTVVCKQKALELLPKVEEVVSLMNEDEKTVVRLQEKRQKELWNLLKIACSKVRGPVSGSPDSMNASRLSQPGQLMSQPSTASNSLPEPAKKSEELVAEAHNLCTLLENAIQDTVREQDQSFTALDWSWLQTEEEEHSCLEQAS

[4] = target: T3, Serine/threonine-protein kinase D2 (Homo sapiens) (UniProt Q9BZL6); test: Residual activity of human PKD2/PRKD2 using KKLNRTLSVA as substrate at 1 uM in presence of 32P-ATP by Hotspot assay relative to control
T3 sequence (whole entry): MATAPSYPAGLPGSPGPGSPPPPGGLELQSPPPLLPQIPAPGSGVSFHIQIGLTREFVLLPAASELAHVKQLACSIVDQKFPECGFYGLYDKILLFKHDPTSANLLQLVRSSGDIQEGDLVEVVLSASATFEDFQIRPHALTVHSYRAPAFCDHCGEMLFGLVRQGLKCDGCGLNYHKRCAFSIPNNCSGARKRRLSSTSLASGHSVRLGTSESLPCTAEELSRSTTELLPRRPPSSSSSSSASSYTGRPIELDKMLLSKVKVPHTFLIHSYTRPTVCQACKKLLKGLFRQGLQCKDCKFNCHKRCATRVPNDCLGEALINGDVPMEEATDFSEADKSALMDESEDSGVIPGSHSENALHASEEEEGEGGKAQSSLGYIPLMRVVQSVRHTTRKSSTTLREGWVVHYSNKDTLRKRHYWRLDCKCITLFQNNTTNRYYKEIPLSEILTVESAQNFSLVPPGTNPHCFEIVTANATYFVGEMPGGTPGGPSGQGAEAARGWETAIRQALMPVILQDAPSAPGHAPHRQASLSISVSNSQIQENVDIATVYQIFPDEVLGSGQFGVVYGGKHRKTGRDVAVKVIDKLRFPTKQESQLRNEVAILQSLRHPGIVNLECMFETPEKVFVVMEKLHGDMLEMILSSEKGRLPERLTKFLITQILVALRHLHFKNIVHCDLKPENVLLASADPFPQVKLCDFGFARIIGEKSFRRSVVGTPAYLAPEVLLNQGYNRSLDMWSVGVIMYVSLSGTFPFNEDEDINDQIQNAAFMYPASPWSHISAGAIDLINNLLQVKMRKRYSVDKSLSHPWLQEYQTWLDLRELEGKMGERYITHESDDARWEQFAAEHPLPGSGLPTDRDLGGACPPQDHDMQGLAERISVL

[5] = target: Dual specificity protein kinase CLK3 (Homo sapiens) (UniProt P49761); test: Residual activity of human CLK3 using myelin basic protein as substrate at 1 uM in presence of 32P-ATP by Hotspot assay relative to control
[6] = target: Macrophage-stimulating protein receptor (Homo sapiens) (UniProt Q04912); test: Inhibition of human RON/MST1R using KKSRGDYMTMQIG as substrate at 1 uM in presence of 32P-ATP by Hotspot assay relative to control
Macrophage-stimulating protein receptor (Homo sapiens), sequence (Q04912 25-304 limits assumed): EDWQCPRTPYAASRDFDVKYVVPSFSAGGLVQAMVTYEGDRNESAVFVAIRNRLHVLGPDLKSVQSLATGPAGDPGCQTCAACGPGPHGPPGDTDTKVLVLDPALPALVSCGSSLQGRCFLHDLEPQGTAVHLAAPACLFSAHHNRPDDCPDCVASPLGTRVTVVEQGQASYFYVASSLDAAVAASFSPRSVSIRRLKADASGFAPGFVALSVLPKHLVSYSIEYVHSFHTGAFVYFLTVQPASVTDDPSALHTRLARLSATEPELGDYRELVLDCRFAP
Macrophage-stimulating protein receptor (Homo sapiens), sequence (Q04912 310-1400 limits assumed): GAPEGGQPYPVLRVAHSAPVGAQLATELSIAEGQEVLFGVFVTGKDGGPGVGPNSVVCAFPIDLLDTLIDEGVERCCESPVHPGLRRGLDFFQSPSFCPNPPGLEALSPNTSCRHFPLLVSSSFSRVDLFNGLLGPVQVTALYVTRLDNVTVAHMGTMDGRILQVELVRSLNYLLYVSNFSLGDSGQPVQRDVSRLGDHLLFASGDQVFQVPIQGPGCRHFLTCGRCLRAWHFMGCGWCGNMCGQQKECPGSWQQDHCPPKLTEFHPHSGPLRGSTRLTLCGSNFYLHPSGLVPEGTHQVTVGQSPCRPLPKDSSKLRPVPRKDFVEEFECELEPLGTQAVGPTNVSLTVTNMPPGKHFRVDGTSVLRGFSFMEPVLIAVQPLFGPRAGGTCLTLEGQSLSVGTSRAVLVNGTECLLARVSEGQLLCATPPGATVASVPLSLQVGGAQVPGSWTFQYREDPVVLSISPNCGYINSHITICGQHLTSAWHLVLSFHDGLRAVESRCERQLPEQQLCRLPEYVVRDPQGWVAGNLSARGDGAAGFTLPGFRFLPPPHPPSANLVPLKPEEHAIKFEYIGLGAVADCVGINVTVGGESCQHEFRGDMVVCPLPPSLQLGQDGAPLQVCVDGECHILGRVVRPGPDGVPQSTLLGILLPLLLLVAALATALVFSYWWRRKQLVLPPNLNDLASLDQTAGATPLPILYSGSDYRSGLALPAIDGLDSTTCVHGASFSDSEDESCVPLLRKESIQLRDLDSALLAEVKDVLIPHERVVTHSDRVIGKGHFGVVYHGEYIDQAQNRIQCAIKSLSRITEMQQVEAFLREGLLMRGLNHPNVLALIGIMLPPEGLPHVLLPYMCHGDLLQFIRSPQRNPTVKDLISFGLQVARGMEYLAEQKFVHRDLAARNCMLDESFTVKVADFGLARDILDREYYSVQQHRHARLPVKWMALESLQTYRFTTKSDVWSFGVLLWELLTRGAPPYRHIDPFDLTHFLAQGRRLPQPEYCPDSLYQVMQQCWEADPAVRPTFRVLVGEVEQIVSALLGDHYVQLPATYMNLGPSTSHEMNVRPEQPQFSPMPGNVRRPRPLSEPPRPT

Dual specificity protein kinase CLK3 (Homo sapiens), sequence (P49761 whole entry, looked up): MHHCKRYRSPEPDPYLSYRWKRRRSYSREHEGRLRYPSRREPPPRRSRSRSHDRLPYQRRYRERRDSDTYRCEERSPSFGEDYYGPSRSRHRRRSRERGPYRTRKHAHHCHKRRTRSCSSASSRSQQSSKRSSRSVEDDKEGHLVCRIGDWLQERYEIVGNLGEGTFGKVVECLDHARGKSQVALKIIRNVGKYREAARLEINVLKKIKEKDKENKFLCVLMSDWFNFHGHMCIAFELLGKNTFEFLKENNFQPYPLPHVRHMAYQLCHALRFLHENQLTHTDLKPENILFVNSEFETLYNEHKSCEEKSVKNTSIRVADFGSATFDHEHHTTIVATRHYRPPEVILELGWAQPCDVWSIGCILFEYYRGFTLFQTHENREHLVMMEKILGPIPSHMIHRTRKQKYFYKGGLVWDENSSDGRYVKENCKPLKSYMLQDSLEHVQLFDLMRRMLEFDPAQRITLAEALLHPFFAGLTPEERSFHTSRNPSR

| SMILES | residual activity [1] [%] | inhibition [2] | residual activity [3] [%] | residual activity [4] [%] | residual activity [5] [%] | inhibition [6] [%] |
| --- | --- | --- | --- | --- | --- | --- |
| CC(C)S(=O)(=O)c1ccc2nccc(Nc3ccc4scnc4c3)c2c1 | 95.7 | Active | 93.3 | 101 | 99 | 56.6 |
| Cc1cc(-c2cnc(N)c3c(-c4ccc5scnc5c4)csc23)n(C)n1 | 94.2 | Active | 104 | 39.4 | 98.3 | 91.3 |
| CNC(=O)c1ccc2c(c1)ncn2-c1ccc(CC(=O)OC(C)(C)C)cc1 | 94.2 | Active | 90.2 | 99 | 97.4 | 97.8 |
